Experimental data reported in patent publication US10495796B2, “Near-infrared cut filter” (AGC INC., priority 2012, dated 2019).

Key:
[1] = Absorption characteristics: transmission spectrum of near-infrared absorbing layer of NIR filter (UV-visible spectrophotometer); format: physicochemical
Experimental: Further, the transmittance of the near-infrared absorbing layer can be measured by using an ultraviolet visible light spectrophotometer. For example, when the near-infrared absorbing layer is provided on a glass substrate, the transmittance is calculated by subtracting the transmittance of only the glass substrate. Note that the transmittance of light of the near-infrared absorbing layer refers to, unless otherwise stated, a ratio to light incident from a direction orthogonal to a main surface of a sample, the ratio of this light traveling straight inside the sample and transmitted to an opposite side. Further, when the transmittance is measured by making light incident from a direction other than the direction orthogonal to the main surface of the sample in the measurement of transmittance of light, an angle made by a straight line indicating the direction of the incident light to a line orthogonal to the main surface is called an incident angle.
In the condition (ii-3), the value calculated by nd(B)×(λa−λc) (hereinafter, this value may also be described as “Is value”) is a value to be an index indicating steepness of the absorption curve in the vicinity of the boundary between the visible light region and the near-infrared region with respect to a transmission spectrum of the near-infrared absorbing layer. When this value is 115 or less, the absorption curve in the vicinity of the boundary between the visible light region and the near-infrared region is steep with respect to the near-infrared absorbing layer, which can be said as preferable for the NIR filter.
That is, with respect to the transmission spectrum of the near-infrared absorbing layer, the smaller the difference (λa−λc) between the shortest wavelength λa with transmittance of 1% in the region of 650 nm to 800 nm and the wavelength λc with transmittance of 70% on a shorter wavelength side than the λa, the steeper the absorption curve in the vicinity of the boundary between the visible light region and the near-infrared region. Here, λa−λc also depends on a wavelength width having transmittance of 1% or less (λb−λa; λb is the longest wavelength with transmittance of 1% in the wavelength region of 650 nm to 800 nm). Accordingly, in order to compare and evaluate the steepness of the absorption curve in the above region of the transmission spectrum of the near-infrared absorbing layer, λb−λa is fixed to 30 nm. That is, λb−λa of the near-infrared absorbing layer which the present filter has is not limited to 30 nm.
Further, in the Is value, (λa−λc) is multiplied by the refractive index nd(B) of the transparent resin (B) contained in the near-infrared absorbing layer as a coefficient. This is to standardize the difference in steepness among resins.
Regarding transmittance (%/nm) of the NIR filters 1 to 109 obtained above, transmission spectra were measured and calculated by using an ultraviolet visible light spectrophotometer (U-4100 type spectrophotometer made by Hitachi High-Technologies Corporation). Analysis results of transmission spectra of the near-infrared absorbing layers which the NIR filters have are presented in Table 4, Table 5 and Table 6 for the NIR filters 1 to 25, 26 to 51, 52 to 75, respectively, and are presented in Table 7 and Table 8 for the NIR filters 76 to 94, 95 to 109, respectively. In Table 4 to Table 8, the ratios (parts by mass) of dyes to 100 parts by mass of the transparent resin (B) and film thicknesses of the near-infrared absorbing layers are described together.
Further, conditions of preferred transmission spectra of the near-infrared absorbing layers in the present filter and Is values obtained by the formula: nd(B)×(λa-λc) described in above (ii-3) are described in Table 4 to Table 8 together with λa in the condition (ii-1) and λb-λa in the condition (ii-2). Note that values described in Table 4 to Table 8 are values obtained by subtracting transmittance of a glass plate from transmittance of an NIR filter. […]

[2] = Solubility of dye to organic solvent; format: physicochemical; settings: 50° C., mass % of the dye to the mass of the entire solution; for Solubility to organic solvent: MIBK: methyl isobutyl ketone
Experimental: Regarding the dyes (A11-1) to (A11-10) and (A11-20) to (A11-27) obtained above, solubility to organic solvent was evaluated as follows.
Three kinds of solvents, cyclohexanone, methyl isobutyl ketone (MIBK), toluene, were used as the organic solvent in the solubility test. Note that in Table 3, % is mass % of the dye to the mass of the entire solution. Further, the temperature of each organic solvent in the solubility test was 50° C.

[3] = transparent resin acrylic resin BR50, nd(B) 1.56, film thickness 2.3 μm
[4] = transparent resin polycarbonate EP5000, nd(B) 1.63, film thickness 2.4 μm
[5] = transparent resin polycarbonate SP3810, nd(B) 1.63, film thickness 1.0 μm
[6] = transparent resin polycarbonate SP3810, nd(B) 1.63, film thickness 2.8 μm
[7] = transparent resin polycarbonate SP1516, nd(B) 1.60, film thickness 0.9 μm

Structure (SMILES): CCCCC(CC)C(=O)Nc1cc2c(cc1C1=C([O-])C(=c3cc4c(cc3NC(=O)C(CC)CCCC)=[N+](C)C(C)C4(C)C)C1=O)C(C)(C)C(C)N2C (stereo not drawn) [Example A11-2]
- 430 nm to 600 nm Average transmittance [1, 3]: 95%
- Is value (nd(B)×(λa-λc)) [1, 3]: 112.4
- λa [1, 3]: 689 nm
- λa − λc [1, 3]: 72 nm
- λb [1, 3]: 719 nm
- λb − λa [1, 3]: 30 nm
- λc [1, 3]: 617 nm
- λmax [1, 3]: 706 nm
- 430 nm to 600 nm Average transmittance [1, 4]: 96.2%
- Is value (nd(B)×(λa-λc)) [1, 4]: 112.6
- λa [1, 4]: 694 nm
- λa − λc [1, 4]: 69 nm
- λb [1, 4]: 724 nm
- λb − λa [1, 4]: 30 nm
- λc [1, 4]: 625 nm
- λmax [1, 4]: 711 nm
- 430 nm to 600 nm Average transmittance [1, 5]: 96.1%
- Is value (nd(B)×(λa-λc)) [1, 5]: 114.4
- λa [1, 5]: 694 nm
- λa − λc [1, 5]: 70 nm
- λb [1, 5]: 724 nm
- λb − λa [1, 5]: 30 nm
- λc [1, 5]: 624 nm
- λmax [1, 5]: 706 nm
- 430 nm to 600 nm Average transmittance [1, 6]: 95.5%
- Is value (nd(B)×(λa-λc)) [1, 6]: 112.8
- λa [1, 6]: 694 nm
- λa − λc [1, 6]: 69 nm
- λb [1, 6]: 724 nm
- λb − λa [1, 6]: 30 nm
- λc [1, 6]: 625 nm
- λmax [1, 6]: 710 nm
- Solubility to organic solvent: Cyclohexanone [2]: 10%< mass %
- Solubility to organic solvent: MIBK [2]: 10%< mass %
- Solubility to organic solvent: Toluene [2]: 5.00% mass %

Structure (SMILES): CC(CCC(C(=O)Nc1cc2c(cc1C1=C([O-])C(=c3cc4c(cc3NC(=O)C(CCC(C)CC(C)(C)C)C(C)CC(C)(C)C)=[N+](C)C(C)C4(C)C)C1=O)C(C)(C)C(C)N2C)C(C)CC(C)(C)C)CC(C)(C)C (stereo not drawn) [Example A11-4]
- 430 nm to 600 nm Average transmittance [1, 3]: 95%
- Is value (nd(B)×(λa-λc)) [1, 3]: 110.9
- λa [1, 3]: 688 nm
- λa − λc [1, 3]: 71 nm
- λb [1, 3]: 718 nm
- λb − λa [1, 3]: 30 nm
- λc [1, 3]: 617 nm
- λmax [1, 3]: 705 nm
- 430 nm to 600 nm Average transmittance [1, 4]: 95.7%
- Is value (nd(B)×(λa-λc)) [1, 4]: 112.6
- λa [1, 4]: 693 nm
- λa − λc [1, 4]: 69 nm
- λb [1, 4]: 723 nm
- λb − λa [1, 4]: 30 nm
- λc [1, 4]: 624 nm
- λmax [1, 4]: 709 nm
- 430 nm to 600 nm Average transmittance [1, 5]: 96.8%
- Is value (nd(B)×(λa-λc)) [1, 5]: 112.8
- λa [1, 5]: 693 nm
- λa − λc [1, 5]: 69 nm
- λb [1, 5]: 723 nm
- λb − λa [1, 5]: 30 nm
- λc [1, 5]: 624 nm
- λmax [1, 5]: 705 nm
- 430 nm to 600 nm Average transmittance [1, 6]: 95.9%
- Is value (nd(B)×(λa-λc)) [1, 6]: 111.2
- λa [1, 6]: 693 nm
- λa − λc [1, 6]: 68 nm
- λb [1, 6]: 723 nm
- λb − λa [1, 6]: 30 nm
- λc [1, 6]: 625 nm
- λmax [1, 6]: 709 nm
- Solubility to organic solvent: Cyclohexanone [2]: 10%< mass %
- Solubility to organic solvent: MIBK [2]: 10%< mass %
- Solubility to organic solvent: Toluene [2]: 10%< mass %

Structure (SMILES): CC(=O)Nc1cc2c(cc1C1=C([O-])C(=c3cc4c(cc3NC(C)=O)=[N+](C)C(C)C4(C)C)C1=O)C(C)(C)C(C)N2C (stereo not drawn) [Example A11-20, reference compound]
- 430 nm to 600 nm Average transmittance [1, 3]: 93.1%
- Is value (nd(B)×(λa-λc)) [1, 3]: 142.1
- λa [1, 3]: 687 nm
- λa − λc [1, 3]: 91 nm
- λb [1, 3]: 717 nm
- λb − λa [1, 3]: 30 nm
- λc [1, 3]: 596 nm
- λmax [1, 3]: 704 nm
- 430 nm to 600 nm Average transmittance [1, 4]: 95.6%
- Is value (nd(B)×(λa-λc)) [1, 4]: 122.4
- λa [1, 4]: 693 nm
- λa − λc [1, 4]: 68 nm
- λb [1, 4]: 723 nm
- λb − λa [1, 4]: 30 nm
- λc [1, 4]: 618 nm
- λmax [1, 4]: 710 nm
- 430 nm to 600 nm Average transmittance [1, 7]: 94.5%
- Is value (nd(B)×(λa-λc)) [1, 7]: 126.4
- λa [1, 7]: 690 nm
- λa − λc [1, 7]: 79 nm
- λb [1, 7]: 720 nm
- λb − λa [1, 7]: 30 nm
- λc [1, 7]: 611 nm
- λmax [1, 7]: 706 nm
- 430 nm to 600 nm Average transmittance [1, 5]: 93.6%
- Is value (nd(B)×(λa-λc)) [1, 5]: 129.1
- λa [1, 5]: 693 nm
- λa − λc [1, 5]: 79 nm
- λb [1, 5]: 723 nm
- λb − λa [1, 5]: 30 nm
- λc [1, 5]: 614 nm
- λmax [1, 5]: 710 nm
- 430 nm to 600 nm Average transmittance [1, 6]: 95.0%
- Is value (nd(B)×(λa-λc)) [1, 6]: 124.2
- λa [1, 6]: 694 nm
- λa − λc [1, 6]: 76 nm
- λb [1, 6]: 724 nm
- λb − λa [1, 6]: 30 nm
- λc [1, 6]: 618 nm
- λmax [1, 6]: 710 nm
- Solubility to organic solvent: Cyclohexanone [2]: <1.0% mass %
- Solubility to organic solvent: MIBK [2]: <1.0% mass %
- Solubility to organic solvent: Toluene [2]: <1.0% mass %

Structure (SMILES): CCCCCC(=O)Nc1cc2c(cc1C1=C([O-])C(=c3cc4c(cc3NC(=O)CCCCC)=[N+](C)C(C)C4(C)C)C1=O)C(C)(C)C(C)N2C (stereo not drawn) [Example A11-22, reference compound]
- 430 nm to 600 nm Average transmittance [1, 7]: 95.3%
- Is value (nd(B)×(λa-λc)) [1, 7]: 126.4
- λa [1, 7]: 691 nm
- λa − λc [1, 7]: 79 nm
- λb [1, 7]: 721 nm
- λb − λa [1, 7]: 30 nm
- λc [1, 7]: 612 nm
- λmax [1, 7]: 707 nm
- Solubility to organic solvent: Cyclohexanone [2]: <1.0% mass %
- Solubility to organic solvent: MIBK [2]: <1.0% mass %
- Solubility to organic solvent: Toluene [2]: 1.00% mass %

Structure (SMILES): CCCCCCCC(=O)Nc1cc2c(cc1C1=C([O-])C(=c3cc4c(cc3NC(=O)CCCCCCC)=[N+](C)C(C)C4(C)C)C1=O)C(C)(C)C(C)N2C (stereo not drawn) [Example A11-24, reference compound]
- 430 nm to 600 nm Average transmittance [1, 3]: 93.7%
- Is value (nd(B)×(λa-λc)) [1, 3]: 132.7
- λa [1, 3]: 688 nm
- λa − λc [1, 3]: 85 nm
- λb [1, 3]: 718 nm
- λb − λa [1, 3]: 30 nm
- λc [1, 3]: 603 nm
- λmax [1, 3]: 705 nm
- 430 nm to 600 nm Average transmittance [1, 4]: 95.9%
- Is value (nd(B)×(λa-λc)) [1, 4]: 120.8
- λa [1, 4]: 694 nm
- λa − λc [1, 4]: 69 nm
- λb [1, 4]: 724 nm
- λb − λa [1, 4]: 30 nm
- λc [1, 4]: 620 nm
- λmax [1, 4]: 710 nm
- 430 nm to 600 nm Average transmittance [1, 5]: 95.2%
- Is value (nd(B)×(λa-λc)) [1, 5]: 122.6
- λa [1, 5]: 693 nm
- λa − λc [1, 5]: 75 nm
- λb [1, 5]: 723 nm
- λb − λa [1, 5]: 30 nm
- λc [1, 5]: 618 nm
- λmax [1, 5]: 710 nm
- 430 nm to 600 nm Average transmittance [1, 6]: 95.4%
- Is value (nd(B)×(λa-λc)) [1, 6]: 119.3
- λa [1, 6]: 694 nm
- λa − λc [1, 6]: 73 nm
- λb [1, 6]: 724 nm
- λb − λa [1, 6]: 30 nm
- λc [1, 6]: 621 nm
- λmax [1, 6]: 710 nm
- Solubility to organic solvent: Cyclohexanone [2]: 5.00% mass %
- Solubility to organic solvent: MIBK [2]: 1.00% mass %
- Solubility to organic solvent: Toluene [2]: 5.00% mass %
